Experimental data from ChEMBL document CHEMBL1201862, “PubChem BioAssay data set” (2004).
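Where inhibition never reached the appropriate level, the endpoint shown equals the highest concentration tested. Otherwise, values were interpolated linearly from a five-concentration, 48-hour dose response in 96-well plates. At the GI50, growth is halved.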 Active and inactive are the calls of the source. Rule as the data show it: active = GI50 up to about 1.1 µM and inactive = higher.

How the values were obtained:
Assay in all cases: NCI-60 cell line screen, 48 h
[1] = system: UO-31
[2] = system: COLO 205
[3] = system: NCI-H226
[4] = system: RXF 393
[5] = system: HCT-116
[6] = system: SNB-75
[7] = system: IGROV-1
[8] = system: MOLT-4
[9] = system: HT-29
[10] = system: TK-10
[11] = system: SK-MEL-5
[12] = system: Malme-3M
[13] = system: OVCAR-3
[14] = system: UACC-62
[15] = system: OVCAR-5
[16] = system: HOP-62
[17] = system: SK-MEL-2
[18] = system: SF-268
[19] = system: SR

Measured: GI50

Oc1cccc(-c2cccc(O)n2)n1
inactive: [1] > 100 µM | [2] > 100 µM | [3] > 100 µM | [4] > 100 µM | [5] > 100 µM | [6] > 100 µM | [7] > 100 µM | [8] > 100 µM | [9] > 100 µM | [10] > 100 µM | [11] > 100 µM | [12] > 100 µM | [13] > 100 µM | [14] > 100 µM

O=C(Cc1nc2sc3c(c2c(=O)[nH]1)CCCC3)Nc1ccccc1
inactive: [15] > 100 µM | [2] > 100 µM | [3] > 100 µM | [16] > 100 µM | [4] 15.5 µM | [5] > 100 µM | [6] 25.1 µM | [7] > 100 µM | [8] > 100 µM | [9] > 100 µM | [17] > 100 µM | [10] > 100 µM | [18] > 100 µM | [11] > 100 µM | [12] > 100 µM | [13] > 100 µM | [14] > 100 µM

NCCCCC(=O)c1cccnc1
inactive: [1] > 100 µM | [15] > 100 µM | [16] > 100 µM | [5] > 100 µM | [7] > 100 µM | [8] > 100 µM | [9] > 100 µM | [19] > 100 µM | [17] > 100 µM | [10] > 100 µM | [18] > 100 µM | [11] > 100 µM | [12] > 100 µM | [13] > 100 µM | [14] > 100 µM

C/C(=N/NS(=O)(=O)c1ccccc1)c1cccc[n+]1[O-]
inactive: [1] > 100 µM | [15] > 100 µM | [16] > 100 µM | [5] > 100 µM | [6] > 100 µM | [7] > 100 µM | [8] > 100 µM | [9] > 100 µM | [19] > 100 µM | [10] > 100 µM | [18] > 100 µM | [11] > 100 µM | [13] > 100 µM | [14] > 100 µM

Cc1cc(C)c2c(c1)Nc1ccccc1P2c1ccccc1 (stereo not drawn)
inactive: [1] 19.1 µM | [2] > 100 µM | [16] 25.8 µM | [4] 29.2 µM | [6] 23.7 µM | [7] 27.8 µM | [8] 4.51 µM | [9] 20.3 µM | [10] 40.2 µM | [18] 59.6 µM | [12] 24.5 µM | [13] 24.6 µM | [14] 28.9 µM
